Results published in publication PMC9297976 (Journal of Applied Toxicology, 2021).

What was measured:
medaka Esr1 (mEsr1) [1] = target: T1, medaka Esr1 (mEsr1) (Oryzias latipes, UniProt P50241); assay: cell-based; set-up: species or system Japanese medaka (Oryzias latipes)
T1 sequence (P50241 1-620): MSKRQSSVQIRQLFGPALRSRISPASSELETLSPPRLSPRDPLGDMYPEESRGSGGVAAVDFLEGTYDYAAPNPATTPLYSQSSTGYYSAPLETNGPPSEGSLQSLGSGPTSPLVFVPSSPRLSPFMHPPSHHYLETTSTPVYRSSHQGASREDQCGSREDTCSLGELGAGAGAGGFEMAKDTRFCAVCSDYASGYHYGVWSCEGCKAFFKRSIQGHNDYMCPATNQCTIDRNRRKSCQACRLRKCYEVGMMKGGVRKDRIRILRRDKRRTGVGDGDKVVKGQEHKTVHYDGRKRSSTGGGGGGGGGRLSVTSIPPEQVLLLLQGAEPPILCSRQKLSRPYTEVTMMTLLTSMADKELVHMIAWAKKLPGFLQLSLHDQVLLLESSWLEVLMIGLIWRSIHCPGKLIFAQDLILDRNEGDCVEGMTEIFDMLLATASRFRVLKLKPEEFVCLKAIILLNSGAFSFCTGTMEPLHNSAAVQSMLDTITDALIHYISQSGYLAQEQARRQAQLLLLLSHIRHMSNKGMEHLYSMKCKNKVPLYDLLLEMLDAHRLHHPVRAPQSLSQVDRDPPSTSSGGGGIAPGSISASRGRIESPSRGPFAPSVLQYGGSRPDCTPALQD

[2] = ref Brooke et al., 2009; Saeger et al., 1979; cited from earlier work
[3] = system: Japanese medaka (Oryzias latipes); assay: Fish Short‐Term Reproduction Assay; assay type: in vivo; details: for GSI Female / GSI Male / HSI Female / HSI Male / Length Female / Length Male / Weight Female / Weight Male: completion of exposure
medaka ARβ (mArβ) [4] = target: T2, medaka ARβ (mArβ) (Oryzias latipes, UniProt D1MV73); assay: Medaka ARβ reporter gene assay, antagonist assay; assay type: cell-based, Japanese medaka (Oryzias latipes); details: 11‐KT spiked at 50 nM (D); MAC = 1.0 × 10^−5 M
T2 sequence (D1MV73 1-744): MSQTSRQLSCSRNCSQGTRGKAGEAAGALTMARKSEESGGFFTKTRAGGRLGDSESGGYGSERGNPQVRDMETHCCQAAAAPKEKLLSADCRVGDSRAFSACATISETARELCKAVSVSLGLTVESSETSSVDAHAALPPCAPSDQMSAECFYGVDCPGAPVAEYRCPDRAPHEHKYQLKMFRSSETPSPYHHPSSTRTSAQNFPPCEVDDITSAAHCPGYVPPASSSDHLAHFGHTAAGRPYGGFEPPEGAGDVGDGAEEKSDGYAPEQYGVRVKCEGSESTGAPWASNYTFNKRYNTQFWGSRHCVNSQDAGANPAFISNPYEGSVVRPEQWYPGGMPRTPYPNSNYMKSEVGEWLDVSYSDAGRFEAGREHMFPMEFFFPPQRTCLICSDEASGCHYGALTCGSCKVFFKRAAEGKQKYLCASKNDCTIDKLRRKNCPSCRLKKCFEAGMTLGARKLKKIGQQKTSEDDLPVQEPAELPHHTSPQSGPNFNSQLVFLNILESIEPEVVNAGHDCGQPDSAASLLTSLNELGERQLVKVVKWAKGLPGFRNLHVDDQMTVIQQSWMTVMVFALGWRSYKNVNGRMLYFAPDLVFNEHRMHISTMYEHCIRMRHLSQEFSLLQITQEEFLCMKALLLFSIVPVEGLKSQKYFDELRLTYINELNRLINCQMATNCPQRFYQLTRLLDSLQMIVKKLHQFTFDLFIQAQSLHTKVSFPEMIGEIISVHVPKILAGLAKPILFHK

medaka Esr1 (mEsr1) [5] = target: T1, medaka Esr1 (mEsr1); assay: Medaka Esr1 reporter gene assay, antagonist assay; assay type: cell-based, Japanese medaka (Oryzias latipes); details: E2 spiked at 1.0 nM (B); MAC = 1.0 × 10^−5 M
medaka ARβ (mArβ) [6] = target: T2, medaka ARβ (mArβ); assay: Medaka ARβ reporter gene assay, agonist assay; assay type: cell-based, Japanese medaka (Oryzias latipes); details: MAC = 1.0 × 10^−5 M
[7] = 44.9 μg/L measured, 21 d, sig. ↓ vs control
[8] = measured concentration 2.13 μg/L
[9] = measured concentration 7.19 μg/L
[10] = measured concentration 17.1 μg/L
[11] = measured concentration 44.9 μg/L

O=P(Oc1ccccc1)(Oc1ccccc1)Oc1ccccc1 [TPP, Triphenyl phosphate]
EC50 (medaka Esr1 (mEsr1) [1]): 9.7 µM
In vitro positive: Esr (medaka Esr1 (mEsr1) [1]; mode of action in which EC50 or PC10 was obtained in RGA): Esr
Water solubility [2]: 1 to 1.9 µg/mL
Fertility rate ([3]; 2.13 μg/L measured, 21 d): 89 ± 4.9%
Hepatic VTG, female ([3]; 2.13 μg/L measured, 21 d): 542 ± 115 ng/mg‐liver
Hepatic VTG, male ([3]; 2.13 μg/L measured, 21 d): 6.9 ± 4.0 ng/mg‐liver
Mortality ([3]; 2.13 μg/L measured, 21 d): 0.0%
Mortality, number of dead fish ([3]; 2.13 μg/L measured, 21 d): 0
Number of fertilized eggs (per female per day) ([3]; 2.13 μg/L measured, 21 d): 18 ± 3.1
Number of total eggs (per female per day) ([3]; 2.13 μg/L measured, 21 d): 20 ± 2.7
SSC female (joint plates with papillary processes) ([3]; 2.13 μg/L measured, 21 d): 0 ± 0
SSC male (joint plates with papillary processes) ([3]; 2.13 μg/L measured, 21 d): 83 ± 7.4
Fertility rate ([3]; 7.19 μg/L measured, 21 d): 91 ± 3.8%
Hepatic VTG, male ([3]; 7.19 μg/L measured, 21 d): 8.4 ± 9.0 ng/mg‐liver
Mortality ([3]; 7.19 μg/L measured, 21 d): 0.0%
Mortality, number of dead fish ([3]; 7.19 μg/L measured, 21 d): 0
Number of fertilized eggs (per female per day) ([3]; 7.19 μg/L measured, 21 d): 17 ± 3.4
Number of total eggs (per female per day) ([3]; 7.19 μg/L measured, 21 d): 19 ± 3.1
SSC female (joint plates with papillary processes) ([3]; 7.19 μg/L measured, 21 d): 0 ± 0
SSC male (joint plates with papillary processes) ([3]; 7.19 μg/L measured, 21 d): 84 ± 6.9
Hepatic VTG, female ([3]; 7.19 μg/L measured, 21 d, sig. ↓ vs control): 360 ± 60 ng/mg‐liver
Fertility rate ([3]; 17.1 μg/L measured, 21 d): 93 ± 2.2%
Hepatic VTG, male ([3]; 17.1 μg/L measured, 21 d): 11 ± 9.4 ng/mg‐liver
Mortality ([3]; 17.1 μg/L measured, 21 d): 0.0%
Mortality, number of dead fish ([3]; 17.1 μg/L measured, 21 d): 0
Number of fertilized eggs (per female per day) ([3]; 17.1 μg/L measured, 21 d): 19 ± 1.8
Number of total eggs (per female per day) ([3]; 17.1 μg/L measured, 21 d): 20 ± 2.0
SSC female (joint plates with papillary processes) ([3]; 17.1 μg/L measured, 21 d): 0 ± 0
SSC male (joint plates with papillary processes) ([3]; 17.1 μg/L measured, 21 d): 83 ± 7.2
Hepatic VTG, female ([3]; 17.1 μg/L measured, 21 d, sig. ↓ vs control): 420 ± 77 ng/mg‐liver
Fertility rate ([3]; 44.9 μg/L measured, 21 d): 91 ± 3.9%
Hepatic VTG, male ([3]; 44.9 μg/L measured, 21 d): 8.8 ± 8.1 ng/mg‐liver
Mortality ([3]; 44.9 μg/L measured, 21 d): 4.2%
Mortality, number of dead fish ([3]; 44.9 μg/L measured, 21 d): 1
SSC female (joint plates with papillary processes) ([3]; 44.9 μg/L measured, 21 d): 0 ± 0
SSC male (joint plates with papillary processes) ([3]; 44.9 μg/L measured, 21 d): 90 ± 8.0
Hepatic VTG, female [3, 7]: 417 ± 70 ng/mg‐liver
Number of fertilized eggs (per female per day) [3, 7]: 15 ± 3.5
Number of total eggs (per female per day) [3, 7]: 16 ± 3.2
Fecundity, number of total eggs (in words) ([3]; 21 d): statistically significant decrease
LOECmVTG ([3]; LOEC on VTG induction in males): ND (>44.9) μg/L
LOECREPRO ([3]; LOEC on reproduction (fecundity and/or fertility)): 44.9 µg/L
Fertility rate (in words) ([3]; chemicals with significant decrease of number of total eggs): no significant effect
LOECREPRO (reduction in fecundity or fertility) ([3]; concentrations without overt toxicity): 44.9 µg/L
LOECTOX ([3]; lowest observed effect concentration on mortality): ND (>44.9) μg/L
GSI Female [3, 8]: 7.9 ± 0.5%
GSI Male [3, 8]: 0.87 ± 0.17%
HSI Female [3, 8]: 3.5 ± 0.39%
HSI Male [3, 8]: 1.4 ± 0.12%
Length Female [3, 8]: 35.3 ± 0.7 mm
Length Male [3, 8]: 37.9 ± 1.1 mm
Weight Female [3, 8]: 449 ± 19 mg
Weight Male [3, 8]: 532 ± 44 mg
GSI Female [3, 9]: 8.1 ± 0.6%
GSI Male [3, 9]: 0.95 ± 0.09%
HSI Female [3, 9]: 3.1 ± 0.21%
HSI Male [3, 9]: 1.7 ± 0.29%
Length Female [3, 9]: 35.5 ± 0.3 mm
Length Male [3, 9]: 38.0 ± 1.1 mm
Weight Female [3, 9]: 464 ± 27 mg
Weight Male [3, 9]: 544 ± 49 mg
GSI Female [3, 10]: 7.7 ± 0.7%
GSI Male [3, 10]: 0.94 ± 0.10%
HSI Female [3, 10]: 3.6 ± 0.46%
HSI Male [3, 10]: 1.7 ± 0.24%
Length Female [3, 10]: 35.2 ± 1.0 mm
Length Male [3, 10]: 37.7 ± 1.0 mm
Weight Female [3, 10]: 468 ± 34 mg
Weight Male [3, 10]: 539 ± 31 mg
GSI Female [3, 11]: 9.4 ± 1.3%
GSI Male [3, 11]: 0.80 ± 0.07%
HSI Female [3, 11]: 3.6 ± 0.60%
HSI Male [3, 11]: 1.7 ± 0.13%
Length Female [3, 11]: 34.4 ± 0.4 mm
Length Male [3, 11]: 38.3 ± 1.1 mm
Weight Female [3, 11]: 432 ± 32 mg
Weight Male [3, 11]: 583 ± 68 mg
Antagonistic activity (medaka ARβ (mArβ) [4]): NE (MAC = 1.0 × 10^−5 M)^(D)
Antagonistic activity (medaka Esr1 (mEsr1) [5]): NE (MAC = 1.0 × 10^−5 M)^(B)
Agonistic activity (medaka ARβ (mArβ) [6]): NE (MAC = 1.0 × 10^−5 M)
